# Test results reported in a melting point compilation (Tetko et al.; mined from patent text by program, amines drawn as free bases though some values may be those of a salt).
row,SMILES,melting point
1,CN1C(=O)N(C)S(=O)(=O)N(c2ccc(Cl)cc2)C1=O,82 to 84 °C
2,CCc1ccc2c(=O)c(C(N)=O)cn(C)c2c1,255 to 256 °C
3,Cc1cccc(C)c1CNc1cc(Br)cc2c1nc(C)n2COCc1ccccc1,147 to 148 °C
4,CN1CCN(c2nc3sc4c(NCCCN5CCOCC5)ncnc4c3c3c2COC(C)(C)C3)CC1,90.6 to 92.4 °C
5,COc1cc(NC(=O)Nc2ccccc2C)cc(OC)c1-c1ccc(C[C@H](NC(=O)c2c(Cl)cccc2Cl)C(=O)O)cc1,194 to 195 °C
6,COC(=O)c1c(C(=O)OC)c2sc3ccccc3n2c1-c1ccc(Cl)cc1,172 to 173 °C
7,Cc1ccc(-c2ccc(Cl)cc2)cc1C#CC(C)(C)OCC(=O)O,125 °C
8,O=[N+]([O-])c1cccc(CO)c1I,91 to 91.5 °C
9,Cc1ccc(C(O)(c2ccc(C)cc2)C2CCN(Cc3ccccc3)CC2)cc1,115 to 117 °C
10,Nc1cccc2c1ccn2-c1ccnc(N[C@H]2CC[C@H](O)CC2)n1,219 to 220 °C
11,CCC1Oc2ccc(Br)cc2N(CC(O)CO)C1=O (stereo unspecified),91 °C
12,CCOC(=O)c1sc2cccc(O)c2c1C,183 to 184 °C
13,Cc1[nH]c2ccccc2c1CN1CCC(c2c(Cl)cccc2Cl)CC1,168 to 170 °C
14,CN1CC(Oc2ccc(Nc3cc(-c4cccc(-n5ncc6cc(C(C)(C)C)cc(F)c6c5=O)c4CO)cn(C)c3=O)nc2)C1,> 300 °C
15,COc1cnc(NS(=O)(=O)c2cccc(Cl)c2Cl)c(OC)n1,138 to 139 °C
16,C=CCCC(=O)N1CCc2nnc(NN)cc2C1,132 to 134 °C
17,CS(=O)(=O)Nc1cccc(Nc2nc(NC3CN4CCC3CC4)c3nc[nH]c3n2)c1 (stereo unspecified),200 to 204 °C
18,CC(=O)NCCNc1nc(-c2ccccc2)nc2[nH]c(C(=O)N3CCOCC3)cc12,250 °C
19,CCCCNc1c(N)c(S)nc(C)c1C(=O)OCC,103 to 105 °C
20,CC(=O)c1c(C)c(C#N)c2nc(C3CC3)oc2c1N1CC[C@H](N(C)C)C1,142 °C
21,CCOc1cccc(C(=O)N2CCc3cc(O)ccc3C2)c1,150 to 151 °C
22,CSc1nnc(C(F)(F)F)n1C,46 °C
23,CC(=O)NC(Cc1cccc(C(=O)OC(C)(C)C)c1)C(=O)OCc1ccccc1 (stereo unspecified),164 to 166 °C
24,CN1CCCCC1CCn1nc(-c2c(-c3ccccc3)nn3ccccc23)ccc1=O (stereo unspecified),114 to 116 °C

row,SMILES,melting point
1,Cc1cccc(C)c1CNc1cc(C(=O)N(C)C)cc2c1nc(C)n2C,142 to 143 °C
2,COCC(=O)c1cccc(S(N)(=O)=O)c1,121 to 122 °C
3,OCc1cn(-c2ccc(F)c(Cl)c2)cn1,130 to 135 °C
4,COc1ccc(C(=O)c2ccc([N+](=O)[O-])cc2)cc1OC,160 to 162 °C
5,CCOC(=O)c1cnc(Cl)c([N+](=O)[O-])c1NC,70 to 72 °C
6,CCCC(CCCCNC(=O)c1cc2ccc(C3OC(CO)C(O)C(O)C3O)cc2oc1=O)C(=O)O (stereo unspecified),162 °C
7,O=c1[nH]c2cc(Cl)ccc2c(O)c1-c1cccc(Br)c1,358 °C
8,Oc1cc(CN/C=C2\CN=Cc3ccc(Br)cc32)ccc1OC(F)F,256 to 258 °C
9,CCCCc1ccc(-c2ccc(CCc3ccc(C(F)(F)F)cc3)cc2)cc1,85 °C
10,CCCn1nc2c(N)nc3ccccc3c2c1CC(C)(C)S(C)(=O)=O,202 to 204 °C
11,Cc1ccc(-c2ccccc2-n2c(C)n[nH]c2=O)cc1,102 to 104 °C
12,CN1CCN(C2=Nc3ccccc3N=C(N3CCN(C)CC3)C2)CC1,227 to 228 °C
13,COc1cc2c3c(n(Cc4ccccc4)c(=O)c2cc1OC)-c1cc2c(cc1C3=O)OCO2,310 to 312 °C
14,COc1cc(COc2nn(-c3ccccc3)cc2C#N)ccc1OCc1nc(-c2ccco2)oc1C,167 to 168 °C
15,CS(=O)(=O)c1ccc(C(=O)O)c(Cl)c1C1=NOCC1,145 to 146 °C
16,O=C(CO)NCCCn1c(-c2ccc(Br)cc2)csc1=Nc1ccccc1,185 to 186 °C
17,CCCCNC(=O)NS(=O)(=O)c1c(C)nn(C)c1OC,135 to 142 °C
18,COc1ccc(Br)cc1-c1cc(-c2cccc(Br)c2)no1,156 °C
19,Cc1nc(-c2ccc(-c3cscn3)cc2)c(-c2ccc(S(N)(=O)=O)c(F)c2)o1,116 to 118 °C
20,OC(Cc1ccncc1)C(Cl)(Cl)Cl (stereo unspecified),166 to 168 °C
21,COc1ccc2ccc(N3C(=O)c4ccccc4C3OC(=O)Oc3ccccc3)nc2n1 (stereo unspecified),145 °C
22,CCc1nn2c(c1Oc1cc(Cl)cc(Cl)c1)CN(Cc1ccc(C#N)cc1)CC2,149 to 150 °C
23,Cc1cccc(C(=O)Nc2c(NC(=O)CCl)ccc3c2C(=O)c2ccccc2C3=O)c1,202 to 203 °C
24,CCOC(=O)NCN1C(=O)CN=C(c2ccccc2Cl)c2cc(Cl)ccc21,147 to 149 °C

row,SMILES,melting point
1,CC(C)=CCN1Cc2cccc3[nH]c(=S)n(c23)CC1C (stereo unspecified),128 °C
2,COC(=O)C(=Cc1cc(OC)c(OC)cc1Br)c1ccccc1C(=O)O,129 to 130 °C
3,COC(=O)c1cc2c(nc1C(=O)OC)SCC2,102 to 104 °C
4,Cc1ccc(NC(=O)N(C)N)cc1NC(=O)N(C)N,164 to 165 °C
5,COc1ccc(C(=O)Cc2ccccc2)c([N+](=O)[O-])c1O,176 to 177 °C
6,O[C@@H]1C=C[C@H](COC(c2ccccc2)(c2ccccc2)c2ccccc2)C1 (relative stereo),94 to 96 °C
7,O=[N+]([O-])c1cccc(Oc2ccc(-c3ccccc3)cc2)c1,97.6 to 98.8 °C
8,O=C(CCCN1CCC(c2noc3cc(F)ccc23)CC1)c1cc2c(s1)C(=O)NCCC2,186 to 187 °C
9,O=C1NC(=O)c2ccc(Br)cc2/C1=C/Nc1ccc(CN2CCCC2)cc1,165 to 166 °C
10,CCCc1c(OCC(O)CSc2ccc(C(=O)CCC(=O)O)c(F)c2)ccc(C(C)=O)c1O (stereo unspecified),136 to 137 °C
11,Cc1oc(-c2ccccc2)nc1COc1ccc(COc2ncccc2C#N)cn1,117 to 118 °C
12,CCCCN(Cc1ccc(-c2ccccc2-c2nnnn2C(c2ccccc2)(c2ccccc2)c2ccccc2)cc1)c1ncccc1C(=O)OCC,90 to 94 °C
13,CCc1ccc2c(OCC(=O)O)c(C(C)C)nn2c1,118 to 119 °C
14,COC(=O)C1(CCN(C)C)c2ccccc2N(C)c2ccc(Cl)cc21 (stereo unspecified),106 °C
15,CCOC(=S)c1c(C)nc2sccn12,133 to 135 °C
16,O=C(CCCCC1CCSS1)N1CCc2ccccc21 (stereo unspecified),65 to 66 °C
17,CN1C(=O)C(C(=O)Nc2ccc(Oc3nnc(C(C)(C)C)o3)cc2)C(=O)N(C)C1=O,200 to 203 °C
18,CC(C)(C)c1cc(I)c(O)c(CNS(=O)(=O)O)c1,172 to 180 °C
19,COc1cc(OCc2ccccn2)ccc1/C=C/c1cc(/C=C/c2ccc3ccn(C(C)=O)c3c2)n[nH]1,182 to 187 °C
20,O=C(c1ccc(-n2ccc(C3CC3)n2)cc1C(F)(F)F)N1Cc2cccn2Cc2ccccc21,163 to 164 °C
21,CS(=O)(=O)c1ccccc1S(N)(=O)=O,249 to 250 °C
22,COc1ccc(C=C2c3ccccc3C(=NOCC(=O)NCC(C)(C)SN=O)c3ccccc32)cc1O,143 to 145 °C
23,CN1N=C(c2ccc(F)cc2)c2ccc(C#N)cc2CS1(=O)=O,284 to 285 °C
